Series [1] in a line: Inhibition of adjuvant arthritis in rat, preventive effect (paw volume). It counts as in vivo, SD rats. The protocol: (§1) Five SD rats 7 to 8 weeks old weighing about 150 g. were used as one group. A dispersion of mycobacterium butyricium in liquid parrafin in a concentration of 12 mg./ml. was injected intracutaneously into the footpad of the right hind foot in a dose of 0.05 ml./rat to cause an adjuvant arthritis (AA). For 30 days after the injection of the adjuvant, the volume of both hind feet was measured by a mercury plethysmography and AA was estimated from the obtained measurements.
(§2) With respect to Compound Nos. 1, 3 and 10, the preventive effect on AA was examined. The oral administration of the compound to be tested was begun at the same time as the administration of the adjuvant and continued for 30 days once a day. The same test was carried out with D-penicillamine and Levamisole.

The nature of series [2]: Effect on carrageenan-induced edema in rat. The following applies: dose 0.005 to 0.05 μg./animal, oral, 30 minutes before carrageenan. The class given is in vivo, SD rats. The protocol:
Five SD rats 7 to 8 weeks old weighing about 150 g. were used as one group. A 1% dispersion of carrageenan was injected intracutaneously into the foot pad of the right hind foot in a dose of 0.1 ml./rat. For 6 hours after the injection, the volume of the foot subjected to the injection was measured by a mercury plethysmography and the carrageenan-induced edema was estimated from the obtained measurements. Compound No. 3 was orally administered 30 minutes before the injection of the carrageenan dispersion.
(In the carrageenan paw model, swelling and tenderness develop within hours.)

Another series can be described thus: Acute toxicity (LD50). The following applies: mouse, in vivo, mice, 7 days observation. The protocol: Eight male ddY mice 5 to 6 weeks old weighing 25 to 30 g. were used as one group. A 5% suspension of the compound to be tested in gum arabic was administered intraperitoneally, intravenously or orally using a stomach tube. The animals were kept under observation for 7 days. The numbers of dead animals were counted and the LD50 values were calculated by the Van der Warden method.

A further series is described as follows: Clinical test, Case 1. It counts as in vivo, patient. The note with it: 50 μg. once a day, oral.
A further series is described as follows: Clinical test, Case 2. The class given is in vivo, patient.
Series [3] is described as follows: Pharmacological activities and side-effects, general statements.
The conditions of series [4]: prior art; cited from earlier work.
Series [5] can be described thus: Change in body weight of rat with adjuvant arthritis. The class given is in vivo, SD rats. The note with it: D-penicillamine or Levamisole; 1st, 10th, 20th and 30th day. The protocol: as §1, §2
During the test of the preventive effect on AA as described in the above (1), the body weight of each rat was measured on 1st, 10th, 20th, and 30th day.

Where [6] appears, read: dose 0.05 μg./animal, oral, once a day for 30 days.
The mark [7] stands for this setting: 100 μg. once a day, oral, after 5 days.
[8] abbreviates: after 3 weeks, twice a week after 7 days, oral.
The mark [9] stands for this setting: dose 1.5 mg./animal (even at a higher dose).

Structures are written as SMILES. Where two headings read alike, the source gives them in different places.

Take `CCCCCCCN1C(C)=CS\C1=C/C=C(/C=C/c1scc(C)[n+]1CCCCCCC)c1scc(C)[n+]1CCCCCCC`: the “inhibition of AA, preventive effect” value is reported as “inhibited AA” in series [1] (dose 0.005 μg./animal, oral, once a day for 30 days) and “inhibit AA” in series [1] (setting [6]). In addition, the “anti-inflammatory action on carrageenan-induced edema” value in series [2] is reported as “did not show anti-inflammatory action”. The median lethal dose (LD50) – broadly, the dose expected to kill half of the subjects tested – at 168 h in “Acute toxicity (LD50)” (ip, i.p., read-out: LD50 i.p.) is 100 mg/kg; in “Acute toxicity (LD50)” (iv, i.v., read-out: LD50 i.v.) it was 12 mg/kg; in the series “Acute toxicity (LD50)” (po, p.o., read-out: LD50 p.o.), > 1400 mg/kg. Further, the side-effect entry is given as “no side-effect” in the series “Clinical test, Case 1” and “No side-effect was observed” in “Clinical test, Case 2” (100 μg., oral). Further, in “Clinical test, Case 1”, the therapeutic effect result is reported as “excellent therapeutic effect”. Moreover, the “inflammation at wrist articulatio coxae and violent pain” value in the series “Clinical test, Case 1” (after 5 days) was “almost removed”. In addition, the “stiffness in the morning and systemic malaise” value in “Clinical test, Case 1” (after 5 days) is recorded as “relieved”. In “Clinical test, Case 1” (morning of the seventh day), the mobility entry is “could arise from a sickbed and go down the stairs with ease”. Also, the “systemic malaise and stiffness in the morning” value in the series “Clinical test, Case 2” (100 μg. once a day, oral, after 3 days) is reported as “relieved”. In addition, in the series “Clinical test, Case 2” (setting [7]), the “inflammation at the joints” value is “relieved”. In the series “Clinical test, Case 2” (setting [7]), the “need for suppository of Indometacin” value is listed as “no necessity for administering the suppository of Indometacin”. The sleep entry in “Clinical test, Case 2” (setting [7]) is reported as “became to sleep well”. Besides, the ability to walk result in the series “Clinical test, Case 2” (setting [8]) was “became to be able to walk”. Moreover, the “swelling (hydrocele) at the joints” value in “Clinical test, Case 2” (setting [8]) is listed as “improved”. Also, the side-effects result in series [3] (cytotoxicity (e.g. granulocytopenia), vomiting, nausea, pyrexia, rash and myasthenia) is on record as “does not have side-effects”. The immunomodulating action entry is given as “shows an immunosuppressive effect” in series [3] (immunological function enhanced), “shows an immunological activating effect” in series [3] (immunological function lowered) and “has no influence on the normal immunological function” in series [3] (normal immunological function). For the same compound, in series [4], the known pharmacological activities result was “antibacterial activity, the acceleration of wound healing, the stimulation of reticular hematopoietic organ and endocrine organ, and the enhancement of antibody formation”.
Consider `CCCCCCCCN1C(C)=CS\C1=C/C=C(/C=C/c1scc(C)[n+]1CCCCCCCC)c1scc(C)[n+]1CCCCCCCC`, for which the LD50 at 168 h in the series “Acute toxicity (LD50)” (ip, i.p., read-out: LD50 i.p.) was 120 mg/kg; in “Acute toxicity (LD50)” (iv, i.v., read-out: LD50 i.v.), 13.5 mg/kg; in the series “Acute toxicity (LD50)” (po, p.o., read-out: LD50 p.o.), > 1400 mg/kg.
Turning to `O=C([O-])c1ccccc1Nc1cc(Cl)ccc1C(=O)[O-].[Na+].[Na+]` [CCA, N-(2-carboxyphenyl)-4-chloroanthranilic acid disodium salt], the “toxicity of known immunomodulators” value in series [4] is reported as “severe toxicities”.
Take `CC(C)(S)[C@@H](N)C(=O)O` [D-penicillamine]: the “inhibition of AA, preventive effect” value in series [1] (setting [9]) is listed as “do not inhibit AA”. In addition, the “change in body weight compared with Control” value in series [5] was “no significant difference”. Moreover, the “toxicity of known immunomodulators” value in series [4] is reported as “severe toxicities”.
Turning to `COc1ccc2c(c1)c(CC(=O)O)c(C)n2C(=O)c1ccc(Cl)cc1` [Indometacin, reference compound], the “side-effect of the medicines used before” value in “Clinical test, Case 2” (human, in vivo) was “gastric ulcer, urticaria and diarrhea”. Further, in “Clinical test, Case 2” (suppository of Shiozol and that of Indometacin, before Compound No. 3), the “condition of the patient on previous treatment” value is “took a turn for the worse”.
For `c1ccc([C@H]2CN3CCSC3=N2)cc1` [Levamisole], the “inhibition of AA, preventive effect” value in series [1] (setting [9]) is recorded as “do not inhibit AA”. Besides, the “change in body weight compared with Control” value in series [5] was “no significant difference”. Also, the “toxicity of known immunomodulators” value in series [4] is “severe toxicities”.
With `CC1=CSC(=CC=C(C=Cc2scc(C)[n+]2C)c2scc(C)[n+]2C)N1C` [compound 1], the “inhibition of AA, preventive effect” value in series [1] (setting [6]) is given as “inhibit AA”. The LD50 at 168 h in “Acute toxicity (LD50)” (ip, i.p., read-out: LD50 i.p.) is 23.4 mg/kg; in “Acute toxicity (LD50)” (iv, i.v., read-out: LD50 i.v.) it was 6.25 mg/kg; in the series “Acute toxicity (LD50)” (po, p.o., read-out: LD50 p.o.) it was > 1400 mg/kg.
Consider `CCCCN1C(C)=CSC1=CC=C(C=Cc1scc(C)[n+]1CCCC)c1scc(C)[n+]1CCCC` [compound 2], for which the LD50 at 168 h in the series “Acute toxicity (LD50)” (ip, i.p., read-out: LD50 i.p.) is 51 mg/kg; in “Acute toxicity (LD50)” (iv, i.v., read-out: LD50 i.v.), 8.5 mg/kg; in “Acute toxicity (LD50)” (po, p.o., read-out: LD50 p.o.), > 1400 mg/kg.
In the case of `CCCCCCCCCCCCN1C(C)=CSC1=CC=C(C=Cc1scc(C)[n+]1CCCCCCCCCCCC)c1scc(C)[n+]1CCCCCCCCCCCC` [compound 10], in series [1] (setting [6]), the “inhibition of AA, preventive effect” value was “inhibit AA”. Also, the LD50 at 168 h in “Acute toxicity (LD50)” (ip, i.p., read-out: LD50 i.p.) was 300 mg/kg; in the series “Acute toxicity (LD50)” (iv, i.v., read-out: LD50 i.v.), 45.2 mg/kg; in “Acute toxicity (LD50)” (po, p.o., read-out: LD50 p.o.), > 1400 mg/kg.

Values taken from patent US4464383A, “Immunomodulator containing trithiazole pentamethine cyanine derivative” (priority 1981, dated 1984).
